Results on 20 compounds are retold here after patent US11702422B2, “Imidazopyridazines as modulators of IL-17” (Janssen Pharmaceutica NV, priority 2020, dated 2023).

The test system of test [1] is IL-17A-induced G-CSF production in human normal keratinocyte (NHK). Put plainly: NHK Assay: IL-17A-induced G-CSF production in human normal keratinocytes. The format is cell-based. Conditions: Homo sapiens, Keratinocyte, 24 h, adult normal human keratinocytes, IL-17A 5 ng/mL, simple average if tested more than once. The essentials: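 HTRF read-out of supernatant G-CSF, quantified from a standard curve, gave IC50 values. Adult keratinocytes, 3000-4000 cells/well, received human IL-17A (5 ng/mL final) pre-mixed 1 h at rt with compound, in 5% FBS and 0.2% DMSO, 24 h at 37° C.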

Test [2] concerns the target IL-17A(FLAG-Tagged): IL-17RA(His-Tagged) (Homo sapiens, UniProt Q16552, K93Q). In words: IL-17A(FLAG-Tagged): IL-17RA(His-Tagged) Binding Disruption Eu-HTRF Assay. Particulars: IL-17A/IL-17RA binding disruption, simple average if tested more than once. Put shortly: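 IC50 comes from a one-site competition fit of the HTRF 665/620 nm ratio. Compound dilutions (2-fold, 22 points) were held 1 h rt with FLAG-tagged IL-17A dimer, then His-tagged IL-17RA plus Eu-cryptate anti-FLAG and D2 anti-His antibodies were added for 2 h rt.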
(In general: TR-FRET usually uses a lanthanide donor and a delayed reading to cut background.)

Sequence of UniProt Q16552 (Q16552 with tags, fused parts or gaps K93Q): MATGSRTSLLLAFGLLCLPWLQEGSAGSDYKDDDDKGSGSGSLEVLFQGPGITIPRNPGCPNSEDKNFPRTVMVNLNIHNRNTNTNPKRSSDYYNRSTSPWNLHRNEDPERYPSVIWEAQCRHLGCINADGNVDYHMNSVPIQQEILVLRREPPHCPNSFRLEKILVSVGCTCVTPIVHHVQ

For the compound `[2H]C([2H])([2H])C([2H])([2H])n1nccc1C(=O)N[C@H](c1cn2ncc([C@H](NC(=O)CCC(F)(F)F)C3CC3)cc2n1)C1CCC(F)(F)CC1` [Example 233, N—((S)-(7-((R)-Cyclopropyl(4,4,4-trifluorobutanamido)methyl)imidazo[1,2-b]pyridazin-2-yl)(4,4-difluorocyclohexyl)methyl)-1-(ethyl-d5)-1H-pyrazole-5-carboxamide], the IC50 – broadly, the concentration that inhibits the measured activity by half – came out at 0.051 µM in test [1] and 0.047 µM in test [2].
For `[2H]C([2H])([2H])C([2H])([2H])n1nccc1C(=O)N[C@H](c1cn2ncc([C@H](NC(=O)CC3CC(F)(F)C3)C3CC3)cc2n1)C1CCC(F)(F)CC1` [Example 234, N—((S)-(7-((R)-Cyclopropyl(2-(3,3-difluorocyclobutyl)acetamido)methyl)imidazo[1,2-b]pyridazin-2-yl)(4,4-difluorocyclohexyl)methyl)-1-(ethyl-d5)-1H-pyrazole-5-carboxamide] the same measures were 0.052 µM and 0.085 µM.
For `O=C(CCC(F)(F)F)N[C@@H](c1cnn2cc([C@@H](NC(=O)c3conc3C3COC3)C3CCC(F)(F)CC3)nc2c1)C1CC1` [Example 235, N—((S)-(7-((R)-Cyclopropyl(4,4,4-trifluorobutanamido)methyl)imidazo[1,2-b]pyridazin-2-yl)(4,4-difluorocyclohexyl)methyl)-3-(oxetan-3-yl)isoxazole-4-carboxamide] the same measures were 0.22 µM and 0.1 µM.
For `O=C(CCC(F)(F)F)N[C@@H](c1cnn2cc([C@@H](NC(=O)c3conc3CC3CC3)C3CCC(F)(F)CC3)nc2c1)C1CC1` [Example 236, N—((S)-(7-((R)-Cyclopropyl(4,4,4-trifluorobutanamido)methyl)imidazo[1,2-b]pyridazin-2-yl)(4,4-difluorocyclohexyl)methyl)-3-(cyclopropylmethyl)isoxazole-4-carboxamide] the same measures were 0.36 µM and 0.046 µM.
Take `O=C(CCC(F)(F)F)N[C@@H](c1cnn2cc([C@@H](NC(=O)c3conc3COC(F)F)C3CCC(F)(F)CC3)nc2c1)C1CC1` [Example 237, N—((S)-(7-((R)-Cyclopropyl(4,4,4-trifluorobutanamido)methyl)imidazo[1,2-b]pyridazin-2-yl)(4,4-difluorocyclohexyl)methyl)-3-((difluoromethoxy)methyl)isoxazole-4-carboxamide]: the figures for the IC50 in test [1] and in test [2] were 0.088 µM and 0.052 µM, respectively.
The like results for `CCOc1nocc1C(=O)N[C@H](c1cn2ncc([C@H](NC(=O)CCC(F)(F)F)C3CC3)cc2n1)C1CCC(F)(F)CC1` [Example 238, N—((S)-(7-((R)-Cyclopropyl(4,4,4-trifluorobutanamido)methyl)imidazo[1,2-b]pyridazin-2-yl)(4,4-difluorocyclohexyl)methyl)-3-ethoxyisoxazole-4-carboxamide] were, in that order, 0.83 µM and 0.19 µM.
Regarding `COc1nocc1C(=O)N[C@H](c1cn2ncc([C@H](NC(=O)CCC(F)(F)F)C3CC3)cc2n1)C1CCC(F)(F)CC1` [Example 239, N—((S)-(7-((R)-Cyclopropyl(4,4,4-trifluorobutanamido)methyl)imidazo[1,2-b]pyridazin-2-yl)(4,4-difluorocyclohexyl)methyl)-3-methoxyisoxazole-4-carboxamide], the figures for the IC50 in test [1] and in test [2] were 1.3 µM and 0.43 µM, respectively.
For `O=C(CCC(F)(F)F)N[C@@H](c1cnn2cc([C@@H](NC(=O)c3ccnn3C3CC3)C3CCC(F)(F)CC3)nc2c1)C1CC1` [Example 240, 1-Cyclopropyl-N—((S)-(7-((R)-cyclopropyl(4,4,4-trifluorobutanamido)methyl)imidazo[1,2-b]pyridazin-2-yl)(4,4-difluorocyclohexyl)methyl)-1H-pyrazole-5-carboxamide] the same measures were 0.21 µM and 0.13 µM.
The like results for `CC(C)n1nccc1C(=O)N[C@H](c1cn2ncc([C@H](NC(=O)CC3(C(F)(F)F)CC3)C3CC3)cc2n1)C1CCC(F)(F)CC1` [Example 244, N—((S)-(7-((R)-Cyclopropyl(2-(1-(trifluoromethyl)cyclopropyl)acetamido)methyl)imidazo[1,2-b]pyridazin-2-yl)(4,4-difluorocyclohexyl)methyl)-1-isopropyl-1H-pyrazole-5-carboxamide] were, in that order, 0.12 µM and 0.14 µM.
For `Cc1nonc1C(=O)N[C@H](c1cn2ncc([C@H](NC(=O)CC3(C(F)(F)F)CC3)C3CC3)cc2n1)C1CCC(F)(F)CC1` [Example 245, N—((S)-(7-((R)-Cyclopropyl(2-(1-(trifluoromethyl)cyclopropyl)acetamido)methyl)imidazo[1,2-b]pyridazin-2-yl)(4,4-difluorocyclohexyl)methyl)-4-methyl-1,2,5-oxadiazole-3-carboxamide] the same measures were 0.29 µM and 0.14 µM.
For the compound `CC(C)n1nccc1C(=O)N[C@H](c1cn2ncc([C@H](NC(=O)CC3CCC3)C3CC3)cc2n1)C1CCC(F)(F)CC1` [Example 246, N—((S)-(7-((R)-(2-Cyclobutylacetamido)(cyclopropyl)methyl)imidazo[1,2-b]pyridazin-2-yl)(4,4-difluorocyclohexyl)methyl)-1-isopropyl-1H-pyrazole-5-carboxamide], the IC50 in test [1] worked out at 0.041 µM; in test [2], 0.09 µM.
On to `Cc1nonc1C(=O)N[C@H](c1cn2ncc([C@H](NC(=O)CC3CCC3)C3CC3)cc2n1)C1CCC(F)(F)CC1` [Example 247, N—((S)-(7-((R)-(2-Cyclobutylacetamido)(cyclopropyl)methyl)imidazo[1,2-b]pyridazin-2-yl)(4,4-difluorocyclohexyl)methyl)-4-methyl-1,2,5-oxadiazole-3-carboxamide], for which the IC50 in test [1] worked out at 0.19 µM; in test [2] it was 0.062 µM.
The like results for `CC(C)n1nccc1C(=O)N[C@H](c1cn2ncc([C@H](NC(=O)CC34CC(C3)C4)C3CC3)cc2n1)C1CCC(F)(F)CC1` [Example 248, N—((S)-(7-((R)-(2-(Cicyclo[1.1.1]pentan-1-yl)acetamido)(cyclopropyl)methyl)imidazo[1,2-b]pyridazin-2-yl)(4,4-difluorocyclohexyl)methyl)-1-isopropyl-1H-pyrazole-5-carboxamide] were, in that order, 0.037 µM and 0.049 µM.
Consider `Cc1nonc1C(=O)N[C@H](c1cn2ncc([C@H](NC(=O)CC34CC(C3)C4)C3CC3)cc2n1)C1CCC(F)(F)CC1` [Example 249, N—((S)-(7-((R)-(2-(Bicyclo[1.1.1]pentan-1-yl)acetamido)(cyclopropyl)methyl)imidazo[1,2-b]pyridazin-2-yl)(4,4-difluorocyclohexyl)methyl)-4-methyl-1,2,5-oxadiazole-3-carboxamide], for which the half-maximal inhibitory concentration (IC50) in test [1] came out at 0.098 µM; in test [2], 0.024 µM.
The like results for `Cc1nonc1C(=O)N[C@H](c1cn2ncc([C@H](NC(=O)CCC(F)F)C3CC3)cc2n1)C1CCC(F)(F)CC1` [Example 250, N—((S)-(7-((R)-Cyclopropyl(4,4-difluorobutanamido)methyl)imidazo[1,2-b]pyridazin-2-yl)(4,4-difluorocyclohexyl)methyl)-4-methyl-1,2,5-oxadiazole-3-carboxamide] were, in that order, 0.39 µM and 0.098 µM.
For `CC(C)n1nccc1C(=O)N[C@H](c1cn2ncc([C@H](NC(=O)CCCF)C3CC3)cc2n1)C1CCC(F)(F)CC1` [Example 251, N—((S)-(7-((R)-Cyclopropyl(4-fluorobutanamido)methyl)imidazo[1,2-b]pyridazin-2-yl)(4,4-difluorocyclohexyl)methyl)-1-isopropyl-1H-pyrazole-5-carboxamide] the same measures were 0.77 µM and 0.2 µM.
Regarding `Cc1nonc1C(=O)N[C@H](c1cn2ncc([C@H](NC(=O)CCCF)C3CC3)cc2n1)C1CCC(F)(F)CC1` [Example 252, N—((S)-(7-((R)-Cyclopropyl(4-fluorobutanamido)methyl)imidazo[1,2-b]pyridazin-2-yl)(4,4-difluorocyclohexyl)methyl)-4-methyl-1,2,5-oxadiazole-3-carboxamide], the half-maximal inhibitory concentration (IC50) in test [1] came out at 7.7 µM; in test [2], 0.64 µM.
For the compound `Cc1nonc1C(=O)N[C@H](c1cn2ncc([C@H](NC(=O)CC(C)(C)C(F)(F)F)C3CC3)cc2n1)C1CCC(F)(F)CC1` [Example 253, N—((S)-(7-((R)-Cyclopropyl(4,4,4-trifluoro-3,3-dimethylbutanamido)methyl)imidazo[1,2-b]pyridazin-2-yl)(4,4-difluorocyclohexyl)methyl)-4-methyl-1,2,5-oxadiazole-3-carboxamide], the results for the half-inhibitory concentration (IC50) in test [1] and in test [2] were 0.76 µM and 0.22 µM, respectively.
For the compound `CC(C)n1nccc1C(=O)N[C@H](c1cn2ncc([C@H](NC(=O)CC(C)(C)C(F)(F)F)C3CC3)cc2n1)C1CCC(F)(F)CC1` [Example 254, N—((S)-(7-((R)-Cyclopropyl(4,4,4-trifluoro-3,3-dimethylbutanamido)methyl)imidazo[1,2-b]pyridazin-2-yl)(4,4-difluorocyclohexyl)methyl)-1-isopropyl-1H-pyrazole-5-carboxamide], the half-maximal inhibitory concentration (IC50) in test [1] was 0.2 µM; in test [2], 0.29 µM.
The like results for `Cc1nonc1C(=O)N[C@H](c1cn2ncc([C@H](NC(=O)CCC(C)(F)F)C3CC3)cc2n1)C1CCC(F)(F)CC1` [Example 259, N—((S)-(7-((R)-Cyclopropyl(4,4-difluoropentanamido)methyl)imidazo[1,2-b]pyridazin-2-yl)(4,4-difluorocyclohexyl)methyl)-4-methyl-1,2,5-oxadiazole-3-carboxamide] were, in that order, 0.62 µM and 0.12 µM.
